In one test the target is T1, CDK4 (Homo sapiens, UniProt P11802).
T1 construct: purchased ThermoFisher (Waltham, Mass.)
In words: Lance TR-FRET kinase assay, CDK4. Format: biochemical. The following applies: ATP 100 μM, 60 min, read-out: CDK 4 inhibitory activity (IC50). As to the method: Inhibitory activity of compounds against CDK1/2/4/5/6/7 was assessed using Lance TR-FRET assay kits from Perkin Elmer Life Sciences (Waltham, Mass.). CDK1/2/4/5/6/7 enzymes were purchased from ThermoFisher (Waltham, Mass.). […] Final concentrations of substrates and DMSO were 100 nM and 0.5%, respectively. Concentrations of ATP and different CDK enzymes were adjusted accordingly to achieve optimal enzymatic activities. Final CDK concentrations were 100, 500, 600, 100, 50, and 200 ng/well and ATP concentrations were 30, 50, 100, 20, 100, and 50 μM for CDK1/2/4/5/6/7, respectively. Assay plates were covered to protect from light and spun for 1 min at 700 RPM. Reactions were allowed to perform for 60 minutes in dark with gentle shaking at room temperature after which 5 μL of 40 mM EDTA in detection buffer was added to stop reactions followed 5 μL of the Eu labeled antibodies giving final concentrations of 2 nM to detect the phosphorylation of the peptide substrates. […] The percent of inhibition was calculated from the means of data points using the formula: 100−(Signalcompound−NoSignalbackground)*100/(Signalvehicle−NoSignalbackground). The IC50s were determined with GraphPad Prism by the non-linear sigmoidal curve fitting of data from 10 doses.
A general note: In TR-FRET formats the signal depends on donor and acceptor labels being close together.

For another test, the target named is T2, CDK6 (Homo sapiens, UniProt Q00534).
T2 construct: purchased ThermoFisher (Waltham, Mass.)
In words: Lance TR-FRET kinase assay, CDK6. Format: biochemical. As to the method:
(§1) Time Resolved-Fluorescent Resonance Energy Transfer (TR-FRET) was used to determine inhibitory ability of compounds A1˜A19, B1s and B1˜B12 against the enzymatic activity of CDK1, CDK2, CDK4, CDK5, CDK6, CDK7, and CDK9.
(§2) Inhibitory activity of compounds against CDK1/2/4/5/6/7 was assessed using Lance TR-FRET assay kits from Perkin Elmer Life Sciences (Waltham, Mass.). CDK1/2/4/5/6/7 enzymes were purchased from ThermoFisher (Waltham, Mass.). 2.5 μL of compound solutions and 2.5 μL of enzyme solutions in kinase assay buffer, which was 50 mM HEPES (pH 7.5) with 1 mM EGTA, 1 mM MgCl2, 2 mM DTT, and 0.01% Tween-20, were added into a white OptiPlate-384 plate followed by adding 5 μL of fluorescently labeled peptide substrates (Ulight-4E-BP1 for CDK4/6 and Ulight-MBP for […]) and ATP mixture solutions. Final concentrations of substrates and DMSO were 100 nM and 0.5%, respectively. Concentrations of ATP and different CDK enzymes were adjusted accordingly to achieve optimal enzymatic activities. Final CDK concentrations were 100, 500, 600, 100, 50, and 200 ng/well and ATP concentrations were 30, 50, 100, 20, 100, and 50 μM for CDK1/2/4/5/6/7, respectively. Assay plates were covered to protect from light and spun for 1 min at 700 RPM. Reactions were allowed to perform for 60 minutes in dark with gentle shaking at room temperature after which 5 μL of 40 mM EDTA in detection buffer was added to stop reactions followed 5 μL of the Eu labeled antibodies giving final concentrations of 2 nM to detect the phosphorylation of the peptide substrates. Assay plates were read with the EnVision™ Multilabel Reader in TR-FRET mode (excitation at 320 nm and emission at 665 nm). The percent of inhibition was calculated from the means of data points using the formula: 100−(Signalcompound−NoSignalbackground)*100/(Signalvehicle−NoSignalbackground). The IC50s were determined with GraphPad Prism by the non-linear sigmoidal curve fitting of data from 10 doses.

Another test deals with T3, CDK9/cyclin T1 (Homo sapiens, UniProt P50750).
T3 construct: purchased ThermoFisher (Waltham, Mass.)
In words: LanthaScreen Eu kinase binding assay, CDK9. The following applies: tracer 236 displacement, CDK9/cyclin T1 5 nM, 1 hour; read-out: CDK 9 inhibitory activity (IC50). As to the method:
as §1
The CDK9 kinase inhibitory activity of compounds was tested in the LanthaScreen Eu kinase binding assay from ThermoFisher. LanthaScreen® Eu Kinase binding assays are based on the binding and displacement of a proprietary, Alexa Fluor® 647-labeled, ATP-competitive kinase inhibitor scaffold (kinase tracer) to CDK9. CDK9/cyclin T1, Kinase tracer 236 and LanthaScreen® Eu-anti-His Antibody were purchased form ThermoFisher (Waltham, Mass.). 5 μL of CDK9/cyclin T1 (final 5 nM)/antibody (final 2 nM) mixture, 5 μL of compound in kinase buffer, and 5 μL of tracer (final 30 nM) were added to wells of a white OptiPlate-384 plate in this specific order. Assay plates were covered to protect from light, spun for 1 min at 700 RPM and incubated at room temperature for 1 hour. Assay plates were read with the EnVision™ Multilabel Reader in TR-FRET mode (excitation at 320 nm and emission at 665 nm). The percent of inhibition was calculated from the means of data points using the formula: 100−(Signalcompound−NoSignalbackgound)*100/(Signalvehicle−NoSignalbackground). The IC50s were determined with GraphPad Prism by the non-linear sigmoidal curve fitting of data from 10 doses.

Another test has as its target T4, CDK1 (Homo sapiens, UniProt P06493).
T4 construct: purchased ThermoFisher (Waltham, Mass.)
In words: Lance TR-FRET kinase assay, CDK1. The following applies: ATP 30 μM, 60 min, read-out: CDK 1 inhibitory activity (IC50). The test is classed as biochemical. As to the method: as §1, §2

The target in another test is T5, CDK2 (Homo sapiens, UniProt P24941).
T5 construct: purchased ThermoFisher (Waltham, Mass.)
In words: Lance TR-FRET kinase assay, CDK2. The test is classed as biochemical. The following applies: ATP 50 μM, 60 min, read-out: CDK 2 inhibitory activity (IC50). As to the method: as §1, §2

T3 sequence (P50750 whole entry): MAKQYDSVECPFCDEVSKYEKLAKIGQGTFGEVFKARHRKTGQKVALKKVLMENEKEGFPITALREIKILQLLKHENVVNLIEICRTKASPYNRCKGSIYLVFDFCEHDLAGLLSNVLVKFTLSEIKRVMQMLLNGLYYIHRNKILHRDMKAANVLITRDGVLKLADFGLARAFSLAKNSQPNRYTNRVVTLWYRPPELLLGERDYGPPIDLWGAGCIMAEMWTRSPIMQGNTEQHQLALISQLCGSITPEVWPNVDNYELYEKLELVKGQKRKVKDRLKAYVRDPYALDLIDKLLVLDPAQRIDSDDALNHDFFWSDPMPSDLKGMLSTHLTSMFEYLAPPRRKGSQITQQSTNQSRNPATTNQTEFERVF
T3 sequence (O60563 whole entry partner): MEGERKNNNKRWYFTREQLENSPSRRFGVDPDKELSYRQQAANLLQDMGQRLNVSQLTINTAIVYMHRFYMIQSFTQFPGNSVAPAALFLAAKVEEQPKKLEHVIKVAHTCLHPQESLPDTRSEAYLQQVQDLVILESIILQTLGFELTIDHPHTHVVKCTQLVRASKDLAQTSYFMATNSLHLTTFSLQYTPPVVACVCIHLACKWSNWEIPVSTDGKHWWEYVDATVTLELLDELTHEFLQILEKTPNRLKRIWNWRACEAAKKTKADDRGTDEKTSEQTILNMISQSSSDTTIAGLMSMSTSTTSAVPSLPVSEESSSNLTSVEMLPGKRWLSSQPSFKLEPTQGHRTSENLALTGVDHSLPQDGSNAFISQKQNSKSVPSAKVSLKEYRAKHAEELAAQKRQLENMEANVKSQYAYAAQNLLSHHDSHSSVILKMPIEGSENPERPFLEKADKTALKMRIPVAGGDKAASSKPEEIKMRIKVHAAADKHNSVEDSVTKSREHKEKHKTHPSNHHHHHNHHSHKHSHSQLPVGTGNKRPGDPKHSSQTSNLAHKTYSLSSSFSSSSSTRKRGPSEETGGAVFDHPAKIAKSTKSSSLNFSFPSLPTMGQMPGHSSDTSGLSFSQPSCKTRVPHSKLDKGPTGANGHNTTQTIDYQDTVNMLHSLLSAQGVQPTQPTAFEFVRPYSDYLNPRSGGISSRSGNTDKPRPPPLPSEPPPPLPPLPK
T4 sequence (P06493 whole entry): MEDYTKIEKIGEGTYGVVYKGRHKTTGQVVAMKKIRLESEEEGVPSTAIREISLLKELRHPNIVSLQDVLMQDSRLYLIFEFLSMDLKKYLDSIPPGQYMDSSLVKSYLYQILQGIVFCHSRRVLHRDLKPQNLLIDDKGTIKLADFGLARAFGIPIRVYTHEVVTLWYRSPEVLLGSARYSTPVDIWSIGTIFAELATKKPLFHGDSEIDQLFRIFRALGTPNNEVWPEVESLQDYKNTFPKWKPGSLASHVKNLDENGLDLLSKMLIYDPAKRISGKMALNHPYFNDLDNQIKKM
T4 sequence (P14635 whole entry partner): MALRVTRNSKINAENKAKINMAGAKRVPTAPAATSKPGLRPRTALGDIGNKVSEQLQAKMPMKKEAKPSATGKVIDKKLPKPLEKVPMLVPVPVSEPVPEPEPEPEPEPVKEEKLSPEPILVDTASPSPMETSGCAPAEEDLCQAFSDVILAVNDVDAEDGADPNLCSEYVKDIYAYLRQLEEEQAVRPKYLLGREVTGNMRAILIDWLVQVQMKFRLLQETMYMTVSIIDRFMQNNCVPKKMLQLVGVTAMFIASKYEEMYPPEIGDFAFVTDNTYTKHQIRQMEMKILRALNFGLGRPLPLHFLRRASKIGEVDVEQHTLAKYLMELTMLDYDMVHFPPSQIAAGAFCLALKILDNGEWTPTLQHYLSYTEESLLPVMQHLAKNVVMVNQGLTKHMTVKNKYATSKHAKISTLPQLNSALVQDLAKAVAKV
T2 sequence (Q00534 whole entry): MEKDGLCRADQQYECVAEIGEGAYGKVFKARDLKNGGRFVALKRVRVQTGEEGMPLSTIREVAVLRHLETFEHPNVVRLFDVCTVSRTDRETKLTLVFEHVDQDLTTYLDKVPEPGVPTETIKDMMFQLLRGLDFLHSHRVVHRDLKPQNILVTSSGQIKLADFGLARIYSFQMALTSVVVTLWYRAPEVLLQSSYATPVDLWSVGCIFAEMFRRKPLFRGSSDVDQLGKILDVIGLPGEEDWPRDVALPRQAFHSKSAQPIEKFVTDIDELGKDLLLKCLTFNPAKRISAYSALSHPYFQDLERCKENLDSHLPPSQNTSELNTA
T2 sequence (P24385 whole entry partner): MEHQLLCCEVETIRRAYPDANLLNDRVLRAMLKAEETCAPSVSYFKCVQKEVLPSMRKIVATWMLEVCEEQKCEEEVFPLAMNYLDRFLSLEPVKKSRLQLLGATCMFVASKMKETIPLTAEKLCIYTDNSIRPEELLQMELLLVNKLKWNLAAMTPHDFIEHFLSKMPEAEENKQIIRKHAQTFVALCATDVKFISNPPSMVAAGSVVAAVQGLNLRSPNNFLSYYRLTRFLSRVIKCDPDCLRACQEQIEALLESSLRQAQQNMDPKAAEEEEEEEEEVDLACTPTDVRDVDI
T1 sequence (P11802 whole entry): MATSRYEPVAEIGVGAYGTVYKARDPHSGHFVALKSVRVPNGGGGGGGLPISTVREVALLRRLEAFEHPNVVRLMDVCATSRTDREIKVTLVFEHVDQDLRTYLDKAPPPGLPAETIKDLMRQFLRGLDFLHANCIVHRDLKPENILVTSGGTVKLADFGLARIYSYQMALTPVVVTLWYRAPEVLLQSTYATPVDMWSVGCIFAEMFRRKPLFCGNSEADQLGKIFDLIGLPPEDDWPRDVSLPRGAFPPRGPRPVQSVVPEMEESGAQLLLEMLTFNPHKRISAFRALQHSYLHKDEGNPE
T1 sequence (P24385 whole entry partner): as the sequence (P24385 whole entry partner) above

By IC50 is commonly meant the midpoint of a concentration-inhibition curve. Take `CN(C)C(=O)c1sc2cnc(Nc3ccc(N4CCNCC4)cn3)cc2c1C1=CCCC1` [Compound A2, 3-(cyclopent-1-en-1-yl)-N,N-dimethyl-5-((5-(piperazin-1-yl)pyridin-2-yl)amino)thieno[2,3-c]pyridine-2-carboxamide]: the results for the IC50 on CDK4 and at CDK6 were 5 nM and 2.3 nM, respectively.
Take `Cc1c(C(=O)N(C)C)sc2cnc(Nc3ccc(N4CCNCC4)cn3)cc12` [Compound A3, N,N,3-trimethyl-5-((5-(piperazin-1-yl)pyridin-2-yl)amino)thieno[2,3-c]pyridine-2-carboxamide]: the IC50 on CDK4 came out at 413 nM; against CDK6, 174 nM; on CDK9/cyclin T1 it was 420 nM.
On to `CN(C)C(=O)c1sc2cnc(Nc3ccc(N4CCNCC4)cn3)cc2c1C1CCC1` [Compound A4, 3-cyclobutyl-N,N-dimethyl-5-((5-(piperazin-1-yl)pyridin-2-yl)amino)thieno[2,3-c]pyridine-2-carboxamide], for which the IC50 on CDK4 came to 4.6 nM; against CDK6 it was 2.1 nM.
In the case of `COC1(c2c(C(=O)N(C)C)sc3cnc(Nc4ccc(N5CCNCC5)cn4)cc23)CCCC1` [Compound A6, 3-(1-methoxycyclopentyl)-N,N-dimethyl-5-((5-(piperazin-1-yl)pyridin-2-yl)amino)thieno[2,3-c]pyridine-2-carboxamide], the IC50 on CDK1 was 501 nM; at CDK2, 124 nM; on CDK4 it was 3.7 nM; against CDK6, 2.1 nM; on CDK9/cyclin T1, 5.2 nM.
For `CN(C)C(=O)c1sc2cnc(Nc3ccc(N4CCNCC4)cn3)cc2c1C1CC2CC2C1` (centres unmarked) [Compound A7, 3-(bicyclo[3.1.0]hexan-3-yl)-N,N-dimethyl-5-((5-(piperazin-1-yl)pyridin-2-yl)amino)thieno[2,3-c]pyridine-2-carboxamide], the IC50 stood at 4.7 nM on CDK4 and 6.4 nM against CDK6.
Consider `O=C(c1sc2cnc(Nc3ccc(N4CCNCC4)cn3)cc2c1C1CCCC1)N1CCC1` [Compound A8, azetidin-1-yl(3-cyclopentyl-5-((5-(piperazin-1-yl)pyridin-2-yl)amino)thieno[2,3-c]pyridin-2-yl)methanone], for which the IC50 on CDK4 was 31 nM; against CDK6, 84 nM; on CDK9/cyclin T1, 552 nM.
Take `N#CC1CN(C(=O)c2sc3cnc(Nc4ccc(N5CCNCC5)cn4)cc3c2C2CCCC2)C1` [Compound A9, 1-(3-cyclopentyl-5-((5-(piperazin-1-yl)pyridin-2-yl)amino)thieno[2,3-c]pyridine-2-carbonyl) azetidine-3-carbonitrile]: the IC50 at CDK4 worked out at 5.3 nM; on CDK6 it was 3.3 nM.
For `CN(C)C(=O)c1sc2cnc(Nc3cccc(N4CCOCC4)c3)cc2c1C1CCCC1` [Compound A10, 3-cyclopentyl-N,N-dimethyl-5-((3-morpholinophenyl)amino)thieno[2,3-c]pyridine-2-carboxamide], the values for the IC50 at CDK4, on CDK6 and at CDK9/cyclin T1 were 262 nM, 168 nM and 106 nM, respectively.
The corresponding values for `CN(C)C(=O)c1sc2cnc(Nc3cccc(N4CCNCC4)c3)cc2c1C1CCCC1` [Compound A11, 3-cyclopentyl-N,N-dimethyl-5-((3-(piperazin-1-yl)phenyl)amino)thieno[2,3-c]pyridine-2-carboxamide] are 160 nM, 50 nM and 58 nM.
For the compound `CN(C)C(=O)c1sc2cnc(Nc3ccc(N4CCNCC4)cn3)cc2c1C1CCC(F)(F)C1` (centres unmarked) [Compound A12, 3-(3,3-difluorocyclopentyl)-N,N-dimethyl-5-((5-(piperazin-1-yl)pyridin-2-yl)amino)thieno[2,3-c]pyridine-2-carboxamide], the IC50 at CDK1 amounted to 3680 nM; on CDK2, 1110 nM; at CDK4, 29 nM; at CDK6, 20 nM.
For `CN(C)C(=O)c1sc2cnc(Nc3ccc(N4CCNCC4)cn3)cc2c1C1CCOC1` (centres unmarked) [Compound A13, N,N-dimethyl-5-((5-(piperazin-1-yl)pyridin-2-yl)amino)-3-(tetrahydrofuran-3-yl)thieno[2,3-c]pyridine-2-carboxamide], the IC50 at CDK4 stood at 34 nM; at CDK6, 25 nM.
With `CN(C)C(=O)c1sc2cnc(Nc3ccc(N4CCN(C(=O)C(O)CO)CC4)cn3)cc2c1C1CCCC1` (centres unmarked) [Compound A14, 3-cyclopentyl-5-((5-(4-(2,3-dihydroxypropanoyl)piperazin-1-yl)pyridin-2-yl)amino)-N,N-dimethylthieno[2,3-c]pyridine-2-carboxamide], the IC50 was 273 nM at CDK1; 67.7 nM on CDK2; 2.9 nM on CDK4; 2.1 nM at CDK6; 4.2 nM at CDK9/cyclin T1.
As to `CC(C)c1c(C(=O)N(C)C)sc2cnc(Nc3ccc(N4CCNCC4)cn3)cc12` [Compound A15, 3-isopropyl-N,N-dimethyl-5-((5-(piperazin-1-yl)pyridin-2-yl)amino)thieno[2,3-c]pyridine-2-carboxamide], the figures for the IC50 on CDK4 and against CDK6 were 20.5 nM and 10.7 nM, respectively.
As to `CN(C)C(=O)c1sc2cnc(Nc3ccc(N4CCNCC4)cn3)cc2c1C1CC1` [Compound A16, 3-cyclopropyl-N,N-dimethyl-5-((5-(piperazin-1-yl)pyridin-2-yl)amino)thieno[2,3-c]pyridine-2-carboxamide], the IC50 worked out at 32.1 nM on CDK4, 21 nM on CDK6 and 24 nM on CDK9/cyclin T1.
On to `O=C(c1sc2cnc(Nc3ccc(N4CCNCC4)cn3)cc2c1C1CCCC1)N1CCCC1` [Compound A17, (3-cyclopentyl-5-((5-(piperazin-1-yl)pyridin-2-yl)amino)thieno[2,3-c]pyridin-2-yl)(pyrrolidin-1-yl)methanone], for which the IC50 at CDK4 is 12 nM; on CDK6, 20 nM.
As to `CC1(C)CN(C(=O)c2sc3cnc(Nc4ccc(N5CCNCC5)cn4)cc3c2C2CCCC2)C1` [Compound A18, (3-cyclopentyl-5-((5-(piperazin-1-yl)pyridin-2-yl)amino)thieno[2,3-c]pyridin-2-yl)(3,3-dimethylazetidin-1-yl)methanone], the values for the IC50 at CDK4 and against CDK6 were 60 nM and 262 nM, respectively.
The corresponding values for `O=C(c1sc2cnc(Nc3ccc(N4CCNCC4)cn3)cc2c1C1CCCC1)N1CC(O)C1` [Compound A19, (3-cyclopentyl-5-((5-(piperazin-1-yl)pyridin-2-yl)amino)thieno[2,3-c]pyridin-2-yl)(3-hydroxyazetidin-1-yl)methanone] are 22 nM and 18 nM.

The values are drawn from patent US20170152269A1, “FUSED BICYCLIC COMPOUNDS AND THEIR USE AS CDK INHIBITORS” (priority 2016, published 2017).
